Source: patent US10414778B2, “Methods for treatment of resistant cancer” (New Mexico Tech University Research Park Corporation, priority 2016, dated 2019)

Tests used:
[1] = test system: A549 cells; test: MTT growth inhibition, A549 NSCLC; assay type: cell-based, human
Experimental: Human cancer cell lines were obtained from the American Type Culture Collection (ATCC, Manassas, Va., USA), the European Collection of Cell Culture (ECACC, Salisbury, UK), and the Deutsche Sammlung von Mikroorganismen und Zellkulturen (DSMZ, Braunschweig, Germany). Human cervical adenocarcinoma HeLa cells were cultured in DMEM supplemented with 10% fetal bovine serum (FBS). Human mammary carcinoma MCF-7 cells were cultured in RPMI supplemented with 10% FBS. The U87 cells (ATCC HTB-14) were cultured in DMEM culture medium, while the A549 cells (DSMZ ACC107) were cultured in RPMI culture medium supplemented with 10% heat-inactivated FBS. The GBM Hs683 (ATCC HTB-138) and the T98G (ATCC CRL-1690) cell lines were cultivated in DMEM supplemented with 10% FBS. The GBM U251 cells (ECACC code 09063001) were cultured in 10% MEM. The human uterine sarcoma MES-SA and MES-SA/Dx5 cells were cultured in RPMI-1640 medium supplemented with 10% FBS with MES SA/Dx5 maintained in the presence of 500 nM Doxorubicin (Sigma™). The U373 glioblastoma cells (ECACC 08061901) were cultured in RPMI culture medium supplemented with 10% heat-inactivated FBS.
All compounds were dissolved in DMSO at a concentration of either 100 mM or 50 mM prior to cell treatment. The cells were trypsinized and seeded at various cell concentrations depending on the cell type. The cells were grown for 24 h to 72 h, treated with compounds at concentrations ranging from 0.001 to 100 μM, and incubated for 48, 72, or 96 h in 100 or 200 μL media depending on the cell line used. Cells treated with 0.1% DMSO were used as a negative control, and cells treated with 1 μM phenyl arsine oxide (PAO) were used as a positive control.
Drug-resistant cell lines (i.e., glioma: Hs683, U373, U251, U87, T98G; lung cancer: A549, H2073; uterine carcinoma: MES-SA/Dx5) were complemented with drug-sensitive cell lines, H1993 lung cancer and MES-SA uterine cancer, which were used as controls. […] The GI50 values were calculated after 48-96 hours of treatment with the indicated compounds in replicate using the MTT growth assay.
Compounds 5l and 5g were further tested using the A549 lung cancer cell line to determine a dose-response effect on apoptosis-resistant cells. (FIGS. 4-7). […] The MTT assay was performed in four replicates after 48 hours of treatment with the indicated compounds relative to a DMSO control.

[2] = test system: H1993 cells; test: Combination treatment with paclitaxel, CellTiter-Glo viability, Bliss Independence; assay type: cell-based, human; conditions: 96 h, FIG. 2
Experimental: Spirodienone 4l was evaluated against patient-derived NSCLC cell line H1993 and its drug-resistant variant, H2073. The patient-derived NSCLC cell line […] was obtained from a regrown tumor at a primary site after a patient relapsed several months later.
Paclitaxel (Teva™) was dissolved in polyethoxylated castor oil. Compound 4l was dissolved in DMSO. The compound was diluted to different concentrations in medium. Appropriate numbers of cells (4×10^3 cells per well for H1993, 7×10^3 cells per well for H2073) were seeded into 96-well plates. […] After 96 h, viability of cells was assessed using the CellTiter-Glo® Luminescent Cell Viability Assay (Promega™), according to the manufacturer's instructions. Predicted additivity was calculated based on Bliss Independence, as defined by Exy=Ex+Ey−ExEy, where Exy is the additive effect of drugs x and y as predicted by the individual effects Ex and Ey.
FIG. 2 and FIG. 3 illustrate the synergism against H1993 cells.

[3] = test system: GBM 031810 cells; test: MTT growth inhibition, primary GBM-derived neurosphere culture GBM 031810; assay type: cell-based; conditions: Homo sapiens, Table 3, 48-96 h treatment, read-out: GI50 in vitro values, glioma GBM 031810
Experimental: Cell culture media were supplemented with 4 mM glutamine (Lonza code BE17-605E), 100 μg/mL gentamicin (Lonza code 17-5182), and penicillin-streptomycin (200 units/ml and 200 μg/ml) (Lonza code 17-602E). Primary GBM-derived neurosphere cultures from a patient undergoing surgical debulking were established using previously described methods. Briefly, resected tumor tissue was minced with a sterile scalpel and dissociated in 3 mL of neurobasal (NB) media containing 100 U/mL of collagenase (Life Technologies™) for 30 minutes at 37° C. Dissociated tissue was then vortexed and filtered using a sterile 70 um nylon Falcon™ cell strainer (Corning™). […]
Compound 4l was evaluated for in vitro growth inhibition against a panel of cancer cell lines, including U373, U251, U87, T98G, human GBM, and A549 NSCLC. […] Compound 4l was also evaluated for in vitro growth inhibition against the apoptosis-sensitive tumor model Hs683 anaplastic oligodendroglioma as a reference.

SMILES | anti-proliferative activity, dose-response (absorbance at 595 nm) ([1]; 48 hours, up to 100 μM, FIGS. 4-7) | GI50 ([1]; Homo sapiens, Table 5, 48-96 hours of treatment, read-out: GI50, Lung Cancer A549) [µM] | synergism with paclitaxel in antiproliferative action [2] | GI50 [3] [µM]
O=C1C=C[C@]23CC[N@](Cc4c2sc2ccccc42)[C@H]3C1 [Compound 5l] | inhibited proliferation of the cells in a dose-dependent manner | 4 | – | –
O=C1C=CC2(C=C1)CCN(C(=O)C(F)(F)F)Cc1c2sc2ccccc12 [Compound 4l] | – | – | synergize with paclitaxel | 8
